Data reported in US8609847B2, “Dihydroquinolinone derivatives” (Taisho Pharmaceutical Co., Ltd, priority 2009, dated 2013).

Target: T1, human H3 receptor (Homo sapiens, UniProt Q9Y5N1)
T1 construct: purchased Perkin Elmer ES-392-M400UA; host or cells: CHO-K1 cells (recombinant expression), membrane preparation
Experiment: H3 Receptor Binding Test
Details: 50% inhibition of R(−)-α-methyl[3H]histamine (1 nM) binding; membrane preparation of human H3 receptor-expressing CHO-K1 cells
Method: A membrane preparation of human H3 receptor-expressing CHO-K1 cells (Perkin Elmer, ES-392-M400UA, 15 μg protein/200 μl), R(−)-α-methyl[^3H]histamine (Amersham, TRK-1017, specific activity: 1.74 TBq/mmol, 1 nM) and a test drug were reacted at room temperature for 1 hour. After completion of the reaction, the reaction mixture was subjected to suction filtration through a 0.3% polyethyleneimine-treated glass filter (GF/C). The glass filter was washed five times with 50 mM Tris-HCl washing solution (pH 7.4) containing 5 mM EDTA. After washing, the glass filter was dried and a scintillator was added thereto, followed by measurement of radioactivity on the filter using a liquid scintillation counter.
Binding of R(−)-α-methyl[^3H]histamine in the presence of 10 μM R(−)-α-methylhistamine was defined as non-specific binding, and the difference between total binding and non-specific binding of R(−)-α-methyl[^3H]histamine was defined as specific binding of R(−)-α-methyl[^3H]histamine. A fixed concentration (1 nM) of R(−)-α-methyl[^3H]histamine was reacted under the above conditions with each test drug at various concentrations to obtain an inhibition curve. The inhibition curve was used to determine the concentration (IC50) of each test drug required for 50% inhibition of R(−)-α-methyl[^3H]histamine binding.

T1 sequence (Q9Y5N1 whole entry): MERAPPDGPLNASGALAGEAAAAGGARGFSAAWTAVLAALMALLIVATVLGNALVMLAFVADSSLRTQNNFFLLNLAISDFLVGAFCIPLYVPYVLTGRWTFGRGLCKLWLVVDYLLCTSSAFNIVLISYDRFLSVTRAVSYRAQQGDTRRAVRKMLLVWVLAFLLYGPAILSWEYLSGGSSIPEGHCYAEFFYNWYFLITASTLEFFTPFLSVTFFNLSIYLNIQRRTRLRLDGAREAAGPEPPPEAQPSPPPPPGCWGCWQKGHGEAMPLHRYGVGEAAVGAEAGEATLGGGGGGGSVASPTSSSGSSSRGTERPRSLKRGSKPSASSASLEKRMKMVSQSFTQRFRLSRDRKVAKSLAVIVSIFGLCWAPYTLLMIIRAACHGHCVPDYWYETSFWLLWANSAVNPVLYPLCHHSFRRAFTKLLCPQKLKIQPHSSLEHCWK

Compound	IC50
C[C@@H]1CCCN1CCCOc1ccc2c(c1)CCC(=O)N2c1ccc2c(c1)OCO2 [Compound No. 44, 1-(1,3-benzodioxol-5-yl)-6-{3-[(2R)-2-methylpyrrolidin-1-yl]propoxy}-3,4-dihydroquinolin-2(1H)-one]	1.2 nM
O=C1CCc2cc(OCCCN3CCCC3)ccc2N1c1cc(F)cc(F)c1 [Compound No. 80, 1-(3,5-difluorophenyl)-6-[3-(pyrrolidin-1-yl)propoxy]-3,4-dihydroquinolin-2(1H)-one]	22 nM
C[C@@H]1CCCN1CCCOc1ccc2c(c1)CCC(=O)N2c1ccc2c(ccn2C(=O)OC(C)(C)C)c1 [Compound No. 41, tert-butyl 5-[6-{3-[(2R)-2-methylpyrrolidin-1-yl]propoxy}-2-oxo-3,4-dihydroquinolin-1(2H)-yl]-1H-indole-1-carboxylate]	53 nM
C[C@@H]1CCCN1CCCOc1ccc2c(c1)CCC(=O)N2c1cccnc1 [Compound No. 35, 6-{3-[(2R)-2-methylpyrrolidin-1-yl]propoxy}-1-(pyridin-3-yl)-3,4-dihydroquinolin-2(1H)-one]	2.2 nM
C[C@@H]1CCCN1CCCOc1ccc2c(c1)CCC(=O)N2c1ccc(Cl)cc1 [Compound No. 7, 1-(4-chlorophenyl)-6-{3-[(2R)-2-methylpyrrolidin-1-yl]propoxy}-3,4-dihydroquinolin-2(1H)-one]	1.6 nM
CC(=O)c1ccc(N2C(=O)CCc3cc(OCCCN4CCC[C@H]4C)ccc32)cc1 [Compound No. 15, 1-(4-acetylphenyl)-6-{3-[(2R)-2-methylpyrrolidin-1-yl]propoxy}-3,4-dihydroquinolin-2(1H)-one]	3.6 nM
CC(C)(C)N1CCC(Oc2ccc3c(c2)CCC(=O)N3c2cnc3ccccc3c2)CC1 [Compound No. 59, 6-[(1-tert-butylpiperidin-4-yl)oxy]-3,4-dihydro-2H-1,3′-biquinolin-2-one]	8.5 nM
C[C@@H]1CCCN1CCCOc1ccc2c(c1)CCC(=O)N2c1ccn(C)c(=O)c1 [Compound No. 54, 1-(1-methyl-2-oxo-1,2-dihydropyridin-4-yl)-6-{3-[(2R)-2-methylpyrrolidin-1-yl]propoxy}-3,4-dihydroquinolin-2(1H)-one]	4.8 nM
C[C@@H]1CCCN1CCCOc1ccc2c(c1)CCC(=O)N2c1ccc(Cl)cn1 [Compound No. 49, 1-(5-chloropyridin-2-yl)-6-{3-[(2R)-2-methylpyrrolidin-1-yl]propoxy}-3,4-dihydroquinolin-2(1H)-one]	4 nM
C[C@@H]1CCCN1CCCOc1ccc2c(c1)CCC(=O)N2c1cc(F)cc(F)c1 [Compound No. 27, 1-(3,5-difluorophenyl)-6-{3-[(2R)-2-methylpyrrolidin-1-yl]propoxy}-3,4-dihydroquinolin-2(1H)-one]	2.1 nM
COc1cccc(N2C(=O)CCc3cc(OCCCN4CCC[C@H]4C)ccc32)c1 [Compound No. 22, 1-(3-methoxyphenyl)-6-{3-[(2R)-2-methylpyrrolidin-1-yl]propoxy}-3,4-dihydroquinolin-2(1H)-one]	1.6 nM
O=C1CCc2cc(OCCCN3CCCCC3)ccc2N1c1ccc(F)cc1 [Compound No. 82, 1-(4-fluorophenyl)-6-[3-(piperidin-1-yl)propoxy]-3,4-dihydroquinolin-2(1H)-one]	9.1 nM
CC(C)N1CCC(Oc2ccc3c(c2)CCC(=O)N3c2ccc(F)cc2)CC1 [Compound No. 75, 1-(4-fluorophenyl)-6-{[1-(propan-2-yl)piperidin-4-yl]oxy}-3,4-dihydroquinolin-2(1H)-one]	1.4 nM
C[C@@H]1CCCN1CCCOc1ccc2c(c1)CCC(=O)N2c1cnc2ccccc2c1 [Compound No. 37, 6-{3-[(2R)-2-methylpyrrolidin-1-yl]propoxy}-3,4-dihydro-2H-1,3′-biquinolin-2-one]	3.1 nM
C[C@@H]1CCCN1CCCOc1cc(Cl)c2c(c1)CCC(=O)N2c1ccc(F)cc1 [Compound No. 85, 8-chloro-1-(4-fluorophenyl)-6-{3-[(2R)-2-methylpyrrolidin-1-yl]propoxy}-3,4-dihydroquinolin-2(1H)-one]	11 nM

Further compounds by falling IC50, results first:

IC50	Compound
22 nM	C[C@@H]1CCCN1CCCOc1ccc2c(c1)CCC(=O)N2c1ccc(C#N)cn1 [Compound No. 46, 6-[6-{3-[(2R)-2-methylpyrrolidin-1-yl]propoxy}-2-oxo-3,4-dihydroquinolin-1(2H)-yl]pyridine-3-carbonitrile]
20 nM	C[C@@H]1CCCN1CCCOc1ccc2c(c1)CCC(=O)N2c1ccc(N2CCCC2=O)cc1 [Compound No. 18, 6-{3-[(2R)-2-methylpyrrolidin-1-yl]propoxy}-1-[4-(2-oxopyrrolidin-1-yl)phenyl]-3,4-dihydroquinolin-2(1H)-one]
17 nM	O=C1CCc2cc(OCCCN3CCCC3)ccc2N1c1cccc(F)c1 [Compound No. 79, 1-(3-fluorophenyl)-6-[3-(pyrrolidin-1-yl)propoxy]-3,4-dihydroquinolin-2(1H)-one]
13 nM	CCN(CC)CCCOc1ccc2c(c1)CCC(=O)N2c1ccc(F)cc1 [Compound No. 83, 6-[3-(diethylamino)propoxy]-1-(4-fluorophenyl)-3,4-dihydroquinolin-2(1H)-one]
13 nM	O=C1CCc2cc(OCCCN3CCCC3)ccc2N1c1ccc(F)cc1 [Compound No. 78, 1-(4-fluorophenyl)-6-[3-(pyrrolidin-1-yl)propoxy]-3,4-dihydroquinolin-2(1H)-one]
6.1 nM	CC(C)(C)N1CCC(Oc2ccc3c(c2)CCC(=O)N3c2cccc(C#N)c2)CC1 [Compound No. 63, 3-{6-[(1-tert-butylpiperidin-4-yl)oxy]-2-oxo-3,4-dihydroquinolin-1(2H)-yl}benzonitrile]
5.4 nM	COc1ccc2ncc(N3C(=O)CCc4cc(OCCCN5CCC[C@H]5C)ccc43)cc2c1 [Compound No. 55, 6′-methoxy-6-{3-[(2R)-2-methylpyrrolidin-1-yl]propoxy}-3,4-dihydro-2H-1,3′-biquinolin-2-one]
5 nM	C[C@@H]1CC[C@@H](C)N1CCCOc1ccc2c(c1)CCC(=O)N2c1ccc(F)cc1 [Compound No. 84, 6-{3-[(2R,5R)-2,5-dimethylpyrrolidin-1-yl]propoxy}-1-(4-fluorophenyl)-3,4-dihydroquinolin-2(1H)-one]
4.4 nM	C[C@@H]1CCCN1CCCOc1ccc2c(c1)CCC(=O)N2c1ccc(C#N)cc1 [Compound No. 1, 4-[6-{3-[(2R)-2-methylpyrrolidin-1-yl]propoxy}-2-oxo-3,4-dihydroquinolin-1(2H)-yl]benzonitrile]
4 nM	COc1ccc(N2C(=O)CCc3cc(OCCCN4CCC[C@H]4C)ccc32)cc1C#N [Compound No. 33, 2-methoxy-5-[6-{3-[(2R)-2-methylpyrrolidin-1-yl]propoxy}-2-oxo-3,4-dihydroquinolin-1(2H)-yl]benzonitrile]
4 nM	C[C@@H]1CCCN1CCCOc1ccc2c(c1)CCC(=O)N2c1ccc(-c2cnco2)cc1 [Compound No. 19, 6-{3-[(2R)-2-methylpyrrolidin-1-yl]propoxy}-1-[4-(1,3-oxazol-5-yl)phenyl]-3,4-dihydroquinolin-2(1H)-one]
3.9 nM	CCOc1ccc(N2C(=O)CCc3cc(OCCCN4CCC[C@H]4C)ccc32)cc1 [Compound No. 5, 1-(4-ethoxyphenyl)-6-{3-[(2R)-2-methylpyrrolidin-1-yl]propoxy}-3,4-dihydroquinolin-2(1H)-one]
2.9 nM	C[C@@H]1CCCN1CCCOc1ccc2c(c1)CCC(=O)N2c1ccc2ncccc2c1 [Compound No. 38, 6-{3-[(2R)-2-methylpyrrolidin-1-yl]propoxy}-3,4-dihydro-2H-1,6′-biquinolin-2-one]
2.7 nM	COc1ccc(N2C(=O)CCc3cc(OCCCN4CCC[C@H]4C)ccc32)cc1 [Compound No. 4, 1-(4-methoxyphenyl)-6-{3-[(2R)-2-methylpyrrolidin-1-yl]propoxy}-3,4-dihydroquinolin-2(1H)-one]
1.3 nM	N#Cc1cccc(N2C(=O)CCc3cc(OC4CCN(C5CCC5)CC4)ccc32)c1 [Compound No. 74, 3-{6-[(1-cyclobutylpiperidin-4-yl)oxy]-2-oxo-3,4-dihydroquinolin-1(2H)-yl}benzonitrile]
1 nM	Cc1ccc(N2C(=O)CCc3cc(OCCCN4CCC[C@H]4C)ccc32)cc1 [Compound No. 3, 1-(4-methylphenyl)-6-{3-[(2R)-2-methylpyrrolidin-1-yl]propoxy}-3,4-dihydroquinolin-2(1H)-one]
0.92 nM	C[C@@H]1CCCN1CCCOc1ccc2c(c1)CCC(=O)N2c1cccc(F)c1 [Compound No. 24, 1-(3-fluorophenyl)-6-{3-[(2R)-2-methylpyrrolidin-1-yl]propoxy}-3,4-dihydroquinolin-2(1H)-one]
0.75 nM	O=C1CCc2cc(OC3CCN(C4CCC4)CC3)ccc2N1c1ccc(Cl)cc1 [Compound No. 70, 1-(4-chlorophenyl)-6-[(1-cyclobutylpiperidin-4-yl)oxy]-3,4-dihydroquinolin-2(1H)-one]
0.72 nM	O=C1CCc2cc(OC3CCN(C4CCC4)CC3)ccc2N1c1cc(F)cc(F)c1 [Compound No. 68, 6-[(1-cyclobutylpiperidin-4-yl)oxy]-1-(3,5-difluorophenyl)-3,4-dihydroquinolin-2(1H)-one]
